Like-named read-outs stand apart in the source and are kept apart here.
Legend:
[1] = target: T1, AtDHDPS2 (dihydrodipicolinate synthase 2) (Arabidopsis thaliana, UniProt Q9FVC8); assay: DHDPS–DHDPR coupled enzyme assay (NADPH oxidation); format: biochemical
T1 construct: gene DHDPS2; recombinant, fusion tag cleaved
T1 sequence (Q9FVC8 40-365): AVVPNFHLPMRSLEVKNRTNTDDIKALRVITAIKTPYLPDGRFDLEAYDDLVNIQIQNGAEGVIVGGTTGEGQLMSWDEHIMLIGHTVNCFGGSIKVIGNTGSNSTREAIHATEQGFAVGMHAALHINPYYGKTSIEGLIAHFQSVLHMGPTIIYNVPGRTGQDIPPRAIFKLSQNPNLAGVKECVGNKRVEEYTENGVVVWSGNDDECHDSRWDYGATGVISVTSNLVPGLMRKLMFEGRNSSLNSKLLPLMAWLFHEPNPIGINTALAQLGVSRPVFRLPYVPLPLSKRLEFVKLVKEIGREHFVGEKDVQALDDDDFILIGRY

[2] = target: T2, AtDHDPS1 (dihydrodipicolinate synthase 1) (Arabidopsis thaliana, UniProt Q9LZX6); assay: DHDPS–DHDPR coupled enzyme assay (NADPH oxidation); format: biochemical
T2 construct: gene DHDPS1; recombinant, fusion tag cleaved
T2 sequence (Q9LZX6 40-365): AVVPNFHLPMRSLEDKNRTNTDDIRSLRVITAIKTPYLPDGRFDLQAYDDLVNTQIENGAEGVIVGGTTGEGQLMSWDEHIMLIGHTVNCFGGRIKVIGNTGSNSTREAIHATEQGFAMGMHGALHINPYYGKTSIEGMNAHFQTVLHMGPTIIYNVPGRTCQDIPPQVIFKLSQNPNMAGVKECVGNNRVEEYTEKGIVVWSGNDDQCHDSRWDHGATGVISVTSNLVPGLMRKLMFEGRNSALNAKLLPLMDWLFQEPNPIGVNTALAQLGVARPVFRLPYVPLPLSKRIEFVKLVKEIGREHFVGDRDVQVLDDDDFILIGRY

Q: Which IC50 [1] does the source give for `COc1ccc(C=C2SC(=O)N(CC(=O)O)C2=O)cc1` (stereo in doubt) [MBDTA-2, (Z)−2-(5-(4-methoxybenzylidene)−2,4-dioxothiazolidin-3-yl)acetic acid] here?
A: 64 ± 1 µM

Q: For `COc1ccccc1/C=C1\SC(=O)N(CC(=O)O)C1=O` [MBDTA-1, (Z)−2-(5-(2-methoxybenzylidene)−2,4-dioxothiazolidin-3-yl)acetic acid], which IC50 [2] is on record?
A: 126 ± 6.5 µM

Q: What about the IC50 ([1]; read-out: IC50) of the same molecule?
A: 116 ± 5.2 µM
